This assay addresses T1, MiRP2-Kv2.1 (Rattus norvegicus, UniProt P15387).
T1 construct: expressed in transfected cells; host or cells: Xenopus oocytes (co-injected cRNA)
T1 sequence (P15387 1-857): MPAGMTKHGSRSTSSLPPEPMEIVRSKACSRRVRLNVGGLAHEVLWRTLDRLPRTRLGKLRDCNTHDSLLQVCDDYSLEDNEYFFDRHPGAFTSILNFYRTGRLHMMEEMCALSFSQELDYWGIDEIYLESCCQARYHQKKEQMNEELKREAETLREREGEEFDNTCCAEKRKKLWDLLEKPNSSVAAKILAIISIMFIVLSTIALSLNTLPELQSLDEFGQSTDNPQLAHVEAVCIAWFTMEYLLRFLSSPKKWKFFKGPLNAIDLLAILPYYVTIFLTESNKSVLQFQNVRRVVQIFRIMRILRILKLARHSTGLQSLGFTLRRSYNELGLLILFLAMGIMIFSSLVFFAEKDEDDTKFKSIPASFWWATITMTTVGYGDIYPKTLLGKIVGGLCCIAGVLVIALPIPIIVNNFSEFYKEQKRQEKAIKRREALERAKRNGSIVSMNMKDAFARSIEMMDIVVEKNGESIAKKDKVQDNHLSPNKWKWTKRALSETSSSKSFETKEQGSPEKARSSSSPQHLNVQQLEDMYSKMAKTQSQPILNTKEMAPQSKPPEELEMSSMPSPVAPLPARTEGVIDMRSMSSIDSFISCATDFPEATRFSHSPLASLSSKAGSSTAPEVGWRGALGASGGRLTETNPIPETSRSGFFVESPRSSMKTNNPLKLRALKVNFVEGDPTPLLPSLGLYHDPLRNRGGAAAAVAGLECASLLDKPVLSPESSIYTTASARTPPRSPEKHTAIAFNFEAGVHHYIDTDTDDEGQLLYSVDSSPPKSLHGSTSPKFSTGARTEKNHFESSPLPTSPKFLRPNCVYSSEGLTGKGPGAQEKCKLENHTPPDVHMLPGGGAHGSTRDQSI
T1 sequence (Q9Y6H6 1-103 partner): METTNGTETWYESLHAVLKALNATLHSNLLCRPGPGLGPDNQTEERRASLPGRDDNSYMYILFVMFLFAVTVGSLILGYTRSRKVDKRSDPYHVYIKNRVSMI
Briefly: TEVC of Xenopus oocytes co-injected with Kv2.1 and MiRP2 cRNA. It counts as cell-based. As to conditions: for p (Hill slope) of logistic dose-response fit: MiRP2-Kv2.1; for effect of MiRP2 on sensitivity of Kv2.1 to the compound: MiRP2-Kv2.1 versus Kv2.1 alone. As to the method: Stage V-VI Xenopus oocytes are separated into small groups using forceps, defolliculated by agitation in Ca^2+-free Ringer solution containing collagenase for one hour, washed, then stored at 15° C. in full Ringers solution before injection. cRNA sufficient to give 1-10 μA of current at physiological voltages for each channel type is injected into Xenopus oocytes (selected by appearance for overall health and uniformity of color) using a Sutter manual injector (typically 0.1-5 ng cRNA in a volume of 25-50 nl). The oocytes are then stored for 1-3 days at 15° C. before TEVC recording. Beta subunit cRNA is co-injected as appropriate, typically 2 ng per oocyte.
Whole cell oocyte experiments are performed using a Warner OC-725C amplifier and pClamp9 software with oocytes bathed in a small-volume Warner oocyte bath and viewed with a Fisher dissection microscope. Bath solution for whole cell oocyte recordings, e.g., for potassium channel analysis, is generally (in mM): 96 NaCl, 4 KCl, 1 MgCl2, 0.3 CaCl2, 10 HEPES (Ph 7.4); whole-cell oocyte TEVC pipettes are filled with 3 M KCl. Oocyte patches are studies using an Axon Instruments small-volume bath, viewed with an Olympus IX50 inverted microscope, and recordings made using an Axon Multiclamp 700 A Amplifier and pCLAMP9 software (Axon Instruments). Extracellular solution, e.g., for potassium channel analysis, is generally (in mM): 135 NaCl, 5 KCl, 1.2 MgCl2, 5 HEPES, 2.5 CaCl2, 10 D-glucose (Ph 7.4). Intracellular solution, e.g., for potassium channel analysis, is generally (in mM): 10 NaCl, 117 KCl, 2 MgCl2, 11 HEPES, 11 EGTA, ICaCl2 (Ph 7.2). Patch pipettes are approximately 3-5 MΩ resistance when filled with recording solution.
Quantitative aspects of ion action on ion channels are compared using standard pulse protocols. Pulse times and voltages will vary according to which currents are being studied. I/V and G/V curves are typically fit to a standard Boltzmann function: 1/{1+exp[(V1/2−V)/Vs]}, where V1/2 is the half-maximal voltage of activation and Vs the slope factor, for quantification and comparison. Kinetics of drug effects upon wash-in are generally fit with single or multiple exponential functions and values for τ and amplitude reported. Drug inhibition constants are calculated after generating a dose response curve by fitting with a logistic dose-response function (see equation (i) below). Typically, 5-20 cells per group are recorded from for heterologous expression experiments. Values are to be stated as mean±SEM with statistical significance set at p<0.05 (unpaired students t-test, ANOVA or the Mann-Whitney Rank Sum Test as appropriate).
Injected oocytes, bathed in bath solution containing 4 mM KCl, unless otherwise stated, are impaled with current and voltage electrodes and clamped at −80 mV holding potential using a Warner OC-725C amplifier. For single-voltage dose-response assessment, currents are recorded for several pulses (each of 1-5 s at a frequency of 0.1 Hz depending upon channel type) in the absence of drug, until equilibrium current level is reached, and then during further pulses with bath application of various concentrations of drug, each until equilibrium current inhibition is observed, with a washout phase in between to eliminate the possibility of channel run-down and other non-drug effects. […] Drug concentrations are chosen to ensure inhibition values between 0 and 90-100% with at least 3 values within the linear portion of the curve so that the inhibition constant (Ki) can be calculated accurately by fitting with a logistic dose-response function (formula (i)) using the Origin 6.1 graph package.
We explored blocking effects on Kv2.1 with and without the MiRP2 ancillary subunit. Kv2.1 can co-assemble with MiRP2 in rat brain. The sensitivities of two diammonium compounds (JE188 and TA279) were analyzed by functional expression in Xenopus oocytes using two-electrode voltage clamp (TEVC), and bath application of the compounds at various concentrations. […]

The record followed here is patent US8143254B2, “Methods for modulating ion channels” (Cornell Research Foundation, Inc., priority 2005, dated 2012).

Where two headings read alike, the source gives them in different places.

`CCCCCCCCCCCC[N+]12CCN(CC1)CC2` [JE188, 1-aza-4-azonia-4-dodecylbicyclo[2.2.2]octane]: the “p (Hill slope) of logistic dose-response fit” value was 1.6±0.2 and the “effect of MiRP2 on sensitivity of Kv2.1 to the compound” value is given as “two-fold decrease in sensitivity”. The IC50 (MiRP2-Kv2.1, external bath application, read-out: x0 of logistic dose-response fit of current inhibition (converted)) was 49.2 ± 8.2 µM.
Regarding `CCCCCCCCCCCCCCCC[N+]12CCN(CC1)CC2` [TA279, 1-aza-4-azonia-4-hexadecylbicyclo[2.2.2]octane], the IC50 stood at 1.3 ± 0.4 µM, the “p (Hill slope) of logistic dose-response fit” value was 0.8±0.2 and the “effect of MiRP2 on sensitivity of Kv2.1 to the compound” value is recorded as “did not significantly alter inhibition”.
